target: T1, human acetyl-CoA carboxylase 2 (ACC2) (Homo sapiens, UniProt O00763); assay: Acetyl-CoA carboxylase enzyme assay (malonyl-CoA formation by LC/MS/MS); type: biochemical; details: recombinant human ACC2 (aa 144-2458); read-out: IC50 ACC2
T1 construct: The cDNA encoding amino acids 144 to 2458 of human acetyl-CoA carboxylase 2; made in house; host or cells: Sf9 insect cells (baculovirus, pFastBac1)
Outline: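 Malonyl-CoA formation was read by LC/MS/MS MRM against a [13C3]-malonyl-CoA internal standard, after acetic acid quench. The enzyme was baculovirus/Sf9-expressed human ACC2 residues 144–2458, given 15 minutes room-temperature compound preincubation in HEPES pH 7.5 buffer with MgCl2, citrate and DTT. Substrate solution held 50 μM acetyl-CoA, 120 μM ATP and 2 mM KHCO3.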

T1 sequence (O00763 144-2458): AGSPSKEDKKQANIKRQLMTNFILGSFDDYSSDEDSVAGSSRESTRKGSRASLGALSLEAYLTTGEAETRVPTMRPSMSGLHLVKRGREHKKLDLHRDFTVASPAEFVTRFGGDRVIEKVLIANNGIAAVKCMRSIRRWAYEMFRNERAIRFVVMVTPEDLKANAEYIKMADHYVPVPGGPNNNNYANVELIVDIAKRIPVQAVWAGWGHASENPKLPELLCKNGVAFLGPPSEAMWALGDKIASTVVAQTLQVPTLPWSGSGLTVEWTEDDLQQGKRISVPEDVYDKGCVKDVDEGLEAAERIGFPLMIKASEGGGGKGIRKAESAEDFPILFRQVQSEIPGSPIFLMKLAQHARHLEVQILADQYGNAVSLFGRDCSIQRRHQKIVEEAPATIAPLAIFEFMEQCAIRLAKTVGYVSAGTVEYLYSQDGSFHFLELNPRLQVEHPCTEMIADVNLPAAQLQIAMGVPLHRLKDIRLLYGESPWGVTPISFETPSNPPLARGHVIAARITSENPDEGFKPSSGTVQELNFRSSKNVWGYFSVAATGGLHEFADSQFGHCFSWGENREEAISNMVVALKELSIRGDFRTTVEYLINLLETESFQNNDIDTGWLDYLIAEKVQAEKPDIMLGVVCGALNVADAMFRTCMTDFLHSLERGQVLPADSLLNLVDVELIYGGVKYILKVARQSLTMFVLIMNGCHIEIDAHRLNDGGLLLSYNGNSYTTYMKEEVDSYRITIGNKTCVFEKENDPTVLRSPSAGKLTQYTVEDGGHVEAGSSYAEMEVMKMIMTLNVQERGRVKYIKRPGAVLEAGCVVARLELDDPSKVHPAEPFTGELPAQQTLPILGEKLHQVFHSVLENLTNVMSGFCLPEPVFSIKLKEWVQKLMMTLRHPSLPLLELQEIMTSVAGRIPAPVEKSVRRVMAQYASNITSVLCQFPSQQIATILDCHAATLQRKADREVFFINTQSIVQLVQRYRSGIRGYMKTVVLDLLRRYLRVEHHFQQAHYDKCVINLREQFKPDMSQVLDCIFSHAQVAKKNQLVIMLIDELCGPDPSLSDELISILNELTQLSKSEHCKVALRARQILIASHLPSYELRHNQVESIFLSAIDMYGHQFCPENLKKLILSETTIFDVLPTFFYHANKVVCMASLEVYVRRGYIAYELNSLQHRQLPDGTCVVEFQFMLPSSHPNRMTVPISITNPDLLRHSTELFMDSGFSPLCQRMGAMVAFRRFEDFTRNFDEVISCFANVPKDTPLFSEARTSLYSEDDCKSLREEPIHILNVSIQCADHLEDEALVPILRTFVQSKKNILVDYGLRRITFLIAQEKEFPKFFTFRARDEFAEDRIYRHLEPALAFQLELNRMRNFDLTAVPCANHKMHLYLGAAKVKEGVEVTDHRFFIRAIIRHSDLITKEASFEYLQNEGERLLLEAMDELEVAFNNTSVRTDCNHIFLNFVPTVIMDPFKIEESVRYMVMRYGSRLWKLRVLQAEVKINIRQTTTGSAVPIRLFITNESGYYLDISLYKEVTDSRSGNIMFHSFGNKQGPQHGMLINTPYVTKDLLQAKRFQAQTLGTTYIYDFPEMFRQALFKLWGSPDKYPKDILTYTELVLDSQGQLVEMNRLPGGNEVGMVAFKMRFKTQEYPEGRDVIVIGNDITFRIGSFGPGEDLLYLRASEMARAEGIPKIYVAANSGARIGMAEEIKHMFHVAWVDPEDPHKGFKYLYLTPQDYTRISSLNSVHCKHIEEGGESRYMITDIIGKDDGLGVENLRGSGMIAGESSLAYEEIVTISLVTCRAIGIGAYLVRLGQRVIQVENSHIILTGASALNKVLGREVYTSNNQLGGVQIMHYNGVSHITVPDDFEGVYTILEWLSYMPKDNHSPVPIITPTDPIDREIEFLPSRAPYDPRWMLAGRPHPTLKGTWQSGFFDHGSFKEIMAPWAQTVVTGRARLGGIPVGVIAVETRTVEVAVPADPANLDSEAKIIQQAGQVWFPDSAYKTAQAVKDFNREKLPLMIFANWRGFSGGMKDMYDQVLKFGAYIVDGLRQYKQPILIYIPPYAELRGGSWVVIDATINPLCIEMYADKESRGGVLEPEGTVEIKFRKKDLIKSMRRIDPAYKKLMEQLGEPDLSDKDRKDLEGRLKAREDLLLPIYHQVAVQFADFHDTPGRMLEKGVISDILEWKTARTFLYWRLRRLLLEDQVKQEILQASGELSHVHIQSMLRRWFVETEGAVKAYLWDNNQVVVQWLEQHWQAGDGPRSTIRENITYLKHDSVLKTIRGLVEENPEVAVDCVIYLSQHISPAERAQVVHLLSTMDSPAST

Row | IC50 [nM] | SMILES
1 | 119 | CC(C)OC(=O)c1ccc(NS(=O)(=O)c2ccc3[nH]c(Nc4cccc(C(C)O)c4)nc3c2)cc1 (stereo not shown) [Example 553, isopropyl 4-(2-(3-(1-hydroxyethyl)phenylamino)-1H-benzo[d]imidazole-5-sulfonamido)benzoate]
2 | 28 | CC(C)OC(=O)[C@H]1CC[C@H](NS(=O)(=O)c2ccc3[nH]c(Nc4ccccc4)nc3c2)CC1 [Example 554, (1r,4r)-isopropyl 4-(2-(phenylamino)-1H-benzo[d]imidazole-5-sulfonamido)cyclohexanecarboxylate]
3 | 30 | COc1ccc(Nc2nc3cc(S(=O)(=O)N[C@H]4CC[C@H](C(=O)OC(C)C)CC4)ccc3[nH]2)cc1 [Example 555, (1r,4r)-isopropyl 4-(2-(4-methoxyphenylamino)-1H-benzo[d]imidazole-5-sulfonamido)cyclohexanecarboxylate]
4 | 25 | CC(C)OC(=O)[C@H]1CC[C@H](NS(=O)(=O)c2ccc3[nH]c(-c4ccc(C(C)O)cc4)nc3c2)CC1 (stereo partly shown) [Example 556, (1r,4r)-isopropyl 4-(2-(4-(1-hydroxyethyl)phenyl)-1H-benzo[d]imidazole-5-sulfonamido)cyclohexanecarboxylate]
5 | 13 | CC(C)OC(=O)[C@H]1CC[C@H](NS(=O)(=O)c2ccc3[nH]c(-c4ccc(N5CCN(C)CC5)cc4)nc3c2)CC1 [Example 557, (1r,4r)-isopropyl 4-(2-(4-(4-methylpiperazin-1-yl)phenyl)-1H-benzo[d]imidazole-5-sulfonamido)cyclohexanecarboxylate]
6 | 337 | CC(C)OC(=O)c1ccc(NS(=O)(=O)c2ccc3[nH]c(-c4ccc(CN(C)C)cc4)nc3c2)cc1 [Example 558, isopropyl 4-(2-(4-((dimethylamino)methyl)phenyl)-1H-benzo[d]imidazole-5-sulfonamido)benzoate]
7 | 163 | CNCc1ccc(-c2nc3cc(S(=O)(=O)Nc4ccc(C(=O)OC(C)C)cc4)ccc3[nH]2)cc1 [Example 559, isopropyl 4-(2-(4-((methylamino)methyl)phenyl)-1H-benzo[d]imidazole-5-sulfonamido)benzoate]
8 | 397 | CC(C)OC(=O)c1ccc(NS(=O)(=O)c2ccc3[nH]c(-c4ccc(CNCc5ccccc5)cc4)nc3c2)cc1 [Example 560, isopropyl 4-(2-(4-((benzylamino)methyl)phenyl)-1H-benzo[d]imidazole-5-sulfonamdo)benzoate]
9 | 316 | CC(C)OC(=O)c1ccc(NS(=O)(=O)c2ccc3[nH]c(-c4ccc(CN5CCN(C)CC5)cc4)nc3c2)cc1 [Example 561, isopropyl 4-(2-(4-((4-methylpiperazin-1-yl)methyl)phenyl)-1H-benzo[d]imidazole-5-sulfonamido)benzoate]
10 | 676 | CC(C)OC(=O)c1ccc(NS(=O)(=O)c2ccc3[nH]c(-c4ccc(CN5CCOCC5)cc4)nc3c2)cc1 [Example 562, isopropyl 4-(2-(4-(morpholinomethyl)phenyl)-1H-benzo[d]imidazole-5-sulfonamido)benzoate]
11 | 351 | COc1ccc(CNCc2ccc(-c3nc4cc(S(=O)(=O)Nc5ccc(C(=O)OC(C)C)cc5)ccc4[nH]3)cc2)cc1OC [Example 563, isopropyl 4-(2-(4-((3,4-dimethoxybenzylamino)methyl)phenyl)-1H-benzo[d]imidazole-5-sulfonamido)benzoate]
12 | 27 | CC(C)N(C)C(=O)[C@H]1CC[C@H](NS(=O)(=O)c2ccc3[nH]c(-c4ccc(N5CCN(C)CC5)cc4)nc3c2)CC1 [Example 564, (1r,4r)-N-isopropyl-N-methyl-4-(2-(4-(4-methylpiperazin-1-yl)phenyl)-1H-benzo[d]imidazole-5-sulfonamido)cyclohexanecarboxamide]
13 | 48 | CCCN(C)C(=O)[C@H]1CC[C@H](NS(=O)(=O)c2ccc3[nH]c(-c4ccc(N5CCN(C)CC5)cc4)nc3c2)CC1 [Example 565, (1r,4r)-N-methyl-4-(2-(4-(4-methylpiperazin-1-yl)phenyl)-1H-benzo[d]imidazole-5-sulfonamido)-N-propylcyclohexanecarboxamide]
14 | 118 | CCCN(C)C(=O)[C@H]1CC[C@H](NS(=O)(=O)c2ccc3[nH]c(Nc4ccccc4)nc3c2)CC1 [Example 566, (1r,4r)-N-methyl-4-(2-(phenylamino)-1H-benzo[d]imidazole-5-sulfonamido)-N-propylcyclohexanecarboxamide]
15 | 65 | CCN(C)C(=O)[C@H]1CC[C@H](NS(=O)(=O)c2ccc3[nH]c(-c4ccc(N5CCN(C)CC5)cc4)nc3c2)CC1 [Example 567, (1r,4r)-N-ethyl-N-methyl-4-(2-(4-(4-methylpiperazin-1-yl)phenyl)-1H-benzo[d]imidazole-5-sulfonamido)cyclohexanecarboxamide]
16 | 126 | CCN(C)C(=O)[C@H]1CC[C@H](NS(=O)(=O)c2ccc3[nH]c(Nc4ccccc4)nc3c2)CC1 [Example 568, (1r,4r)-N-ethyl-N-methyl-4-(2-(phenylamino)-1H-benzo[d]imidazole-5-sulfonamido)cyclohexanecarboxamide]
17 | < 10 | C[C@@H](NC(=O)[C@H]1CC[C@H](NS(=O)(=O)c2ccc3[nH]c(Nc4ccccc4)nc3c2)CC1)c1ccccc1 [Example 569, (1r,4R)-4-(2-(phenylamino)-1H-benzo[d]imidazole-5-sulfonamido)-N-((R)-1-phenylethyl)cyclohexanecarboxamide]
18 | < 10 | C[C@@H](NC(=O)[C@H]1CC[C@H](NS(=O)(=O)c2ccc3[nH]c(Nc4cccc(C#N)c4)nc3c2)CC1)c1ccccc1 [Example 570, (1r,4R)-4-(2-(3-cyanophenylamino)-1H-benzo[d]imidazole-5-sulfonamido)-N-((R)-1-phenylethyl)cyclohexanecarboxamide]
19 | < 10 | C[C@@H](NC(=O)[C@H]1CC[C@H](NS(=O)(=O)c2ccc3[nH]c(Nc4ccc(N5CCOCC5)nc4)nc3c2)CC1)c1ccccc1 [Example 571, (1r,4R)-4-(2-(6-morpholinopyridin-3-ylamino)-1H-benzo[d]imidazole-5-sulfonamido)-N-((R)-1-phenylethyl)cyclohexanecarboxamide]
20 | < 10 | CC(=O)c1ccc(Nc2nc3cc(S(=O)(=O)N[C@H]4CC[C@H](C(=O)N[C@H](C)c5ccccc5)CC4)ccc3[nH]2)cc1 [Example 572, (1r,4R)-4-(2-(4-acetylphenylamino)-1H-benzo[d]imidazole-5-sulfonamido)-N-((R)-1-phenylethyl)cyclohexanecarboxamide]
21 | < 10 | CC(O)c1ccc(-c2nc3cc(S(=O)(=O)N[C@H]4CC[C@H](C(=O)N[C@H](C)c5ccccc5)CC4)ccc3[nH]2)cc1 (stereo partly drawn) [Example 573, (1r,4R)-4-(2-(4-(1-hydroxyethyl)phenyl)-1H-benzo[d]imidazole-5-sulfonamido)-N-((R)-1-phenylethyl)cyclohexanecarboxamide]
22 | < 10 | C[C@@H](NC(=O)[C@H]1CC[C@H](NS(=O)(=O)c2ccc3[nH]c(Nc4ccc(N5CCOCC5)cc4)nc3c2)CC1)c1ccccc1 [Example 574, (1r,4R)-4-(2-(4-morpholinophenylamino)-1H-benzo[d]imidazole-5-sulfonamido)-N-((R)-1-phenylethyl)cyclohexanecarboxamide]

— patent US8697739B2, “Bicyclic acetyl-CoA carboxylase inhibitors and uses thereof” (Novartis AG, priority 2010, dated 2014)
